Among the data in PMC10609219 (Molecules, 2023) are IC50 values, retold here.

This test concerns the target T1, DPP-4 (Homo sapiens, UniProt P27487).
T1 construct: gene DPP4
Description: fluorogenic enzyme inhibition assay (Cayman DPP-4 inhibitor screening kit). It is filed as biochemical.

T1 sequence (P27487 39-766): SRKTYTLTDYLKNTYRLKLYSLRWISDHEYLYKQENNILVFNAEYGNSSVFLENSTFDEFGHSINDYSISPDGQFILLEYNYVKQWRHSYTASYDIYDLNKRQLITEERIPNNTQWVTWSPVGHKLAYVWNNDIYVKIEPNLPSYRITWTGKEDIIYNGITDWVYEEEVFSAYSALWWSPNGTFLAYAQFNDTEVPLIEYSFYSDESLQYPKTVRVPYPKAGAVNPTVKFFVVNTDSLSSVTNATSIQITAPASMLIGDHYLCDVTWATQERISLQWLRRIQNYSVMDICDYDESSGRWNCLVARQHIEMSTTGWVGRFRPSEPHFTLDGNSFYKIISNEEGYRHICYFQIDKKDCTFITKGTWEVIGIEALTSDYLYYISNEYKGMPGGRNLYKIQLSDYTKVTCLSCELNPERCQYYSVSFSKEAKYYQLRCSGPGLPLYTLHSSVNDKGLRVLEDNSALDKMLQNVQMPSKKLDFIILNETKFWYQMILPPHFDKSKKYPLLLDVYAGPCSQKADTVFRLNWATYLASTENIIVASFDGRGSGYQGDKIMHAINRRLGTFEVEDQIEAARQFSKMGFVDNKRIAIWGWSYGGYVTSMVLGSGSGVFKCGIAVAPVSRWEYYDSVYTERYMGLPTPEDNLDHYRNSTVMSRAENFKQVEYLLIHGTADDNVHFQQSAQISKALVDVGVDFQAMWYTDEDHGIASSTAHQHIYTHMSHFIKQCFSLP

Turning to `O=C(O)/C=C/c1ccc(O)c(O)c1` [caffeic acid, (E)-3-(3,4-dihydroxyphenyl)prop-2-enoic acid], the IC50 is 158 ± 11.3 µM.
